Reference: paper PMC4963206 (ChemMedChem, 2016)
Where two headings read alike, the source gives them in different places.

What was measured:
AR230 cells = assay: Phenotypic screening / cytotoxicity in CML cell line AR230; type: cell-based; conditions: read-out: IC50 AR230
AR230^R cells = assay: Phenotypic screening / cytotoxicity in TKI-resistant CML cell line AR230^R; type: cell-based; conditions: for IC50: read-out: IC50 AR230^R; for Fold Difference: Table 3, AR230 vs AR230^R

| SMILES | IC50 (AR230 cells; Table 4) | IC50 (AR230^R cells; Table 4) | Fold Difference (AR230^R cells) | IC50 (AR230 cells; Table 3) | IC50 (AR230^R cells; Table 3) | further results |
| --- | --- | --- | --- | --- | --- | --- |
| Cc1c(F)c(F)c(S(=O)(=O)N(CC(=O)N(Cc2ccc(C3CCCC3)cc2)c2ccc(C(=O)O)cc2)C2CC2)c(F)c1F [AM1-030, 4-(N-(4-Cyclopentylbenzyl)-2-((N-cyclopropyl-2,3,5,6-tetrafluoro-4-methylphenyl)sulfonamido)acetamido)benzoic acid] | > 32 µM | 18.6 µM |  |  |  |  |
| O=C(O)c1ccc(N(Cc2ccc(C(F)(F)F)cc2)C(=O)CN(C2CC2)S(=O)(=O)c2c(F)c(F)c(F)c(F)c2F)cc1 [DR-3-186, 4-(2-(N-cyclopropyl-2,3,4,5,6-pentafluorophenylsulfonamido)-N-(4-(trifluoromethyl)benzyl)acetamido)benzoic acid] |  |  | 1.94 |  |  | IC50 (AR230 cells): 1.4 µM; fold selectivity for AR230^R over AR230 cells (AR230^R cells): < 2 fold; IC50 (AR230^R cells): 0.72 µM |
| CC1(C)CCC(c2ccc(CN(C(=O)CN(C3CC3)S(=O)(=O)c3c(F)c(F)c(F)c(F)c3F)c3ccc(C(=O)O)cc3)cc2)CC1 [DR-3-119, 4-(2-((N-Cyclopropyl-2,3,4,5,6-pentafluorophenyl)sulfonamido)-N-(4-(4,4-dimethylcyclohexyl)benzyl)acetamido)benzoic acid] |  |  | 1.81 | 5.8 µM | 3.2 µM |  |
| CC(C)(C)c1ccc(CN(C(=O)CN(C2CC2)S(=O)(=O)c2c(F)c(F)c(F)c(F)c2F)c2ccc(C(=O)O)cc2)cc1 [DR-3-162, 4-(N-(4-(tert-butyl)benzyl)-2-((N-cyclopropyl-2,3,4,5,6-pentafluorophenyl)sulfonamido)acetamido)benzoic acid] |  |  | 4 | 3.2 µM | 0.8 µM | fold selectivity for AR230^R over AR230 cells (AR230^R cells): 4 fold; fold more potent (AR230^R cells; AR230^R cells): 3 fold |
| O=C(O)c1ccc(N(Cc2ccc(C3CCCC3)cc2)C(=O)CN(C2CC2)S(=O)(=O)c2ccccn2)cc1 [RG1-085, 4-(N-(4-Cyclopentylbenzyl)-2-(N-cyclopropylpyridine-2-sulfonamido)acetamido)benzoic acid] |  |  |  |  |  | IC50 (AR230 cells): > 32 µM; IC50 (AR230^R cells): > 32 µM |
| O=C(O)c1ccc(N(Cc2ccc(C3CCCCC3)cc2)C(=O)CN(C2CC2)S(=O)(=O)c2c(F)c(F)c(F)c(F)c2F)cc1 [DR-3-036] |  |  |  |  |  | IC50 (AR230 cells; Table 2): 4.3 µM; IC50 (AR230^R cells; Table 2): 2.6 µM |
| O=C(O)c1ccc(N(Cc2ccc(C3CCCC3)cc2)C(=O)CN(C2CC2)S(=O)(=O)c2c(F)c(F)cc(F)c2F)cc1 [AM1-020, 4-(N-(4-Cyclopentylbenzyl)-2-((N-cyclopropyl-2,3,5,6-tetrafluorophenyl)sulfonamido)acetamido)benzoic acid] | > 32 µM | 13.1 µM |  |  |  |  |
| O=C(O)c1ccc(N(Cc2ccc(N3CCOCC3)cc2)C(=O)CN(C2CC2)S(=O)(=O)c2c(F)c(F)c(F)c(F)c2F)cc1 [PSL-3-089] |  |  | 1.42 | 7.4 µM | 5.2 µM |  |
| O=C(O)c1ccc(N(Cc2ccc(C3CC3)cc2)C(=O)CN(C2CC2)S(=O)(=O)c2c(F)c(F)c(F)c(F)c2F)cc1 [PSL-3-132] |  |  | 1.75 | 4.2 µM | 2.4 µM |  |
| O=C(O)c1ccc(N(Cc2ccc(C3CCCC3)cc2)C(=O)CNS(=O)(=O)c2c(F)c(F)c(F)c(F)c2F)cc1 [DR-3-111, 4-(N-(4-Cyclopentylbenzyl)-2-((perfluorophenyl)sulfonamido)acetamido)benzoic acid] |  |  |  |  |  | IC50 (AR230 cells): 11.4 µM; fold reduction in activity vs SH-4-54 (AR230^R cells; AR230^R cells): ~5 fold; IC50 (AR230^R cells): 15.6 µM |
| O=C(O)c1ccc(N(Cc2ccc(F)cc2)C(=O)CN(C2CC2)S(=O)(=O)c2c(F)c(F)c(F)c(F)c2F)cc1 [PSL-3-122] |  |  | 2.03 | 6.1 µM | 3 µM |  |
| O=C(O)c1ccc(N(Cc2ccc(C3CCCC3)cc2)C(=O)CN(C2CC2)S(=O)(=O)c2c(F)c(F)c(Cl)c(F)c2F)cc1 [AM1-112, 4-(N-(4-Cyclopentylbenzyl)-2-((N-cyclopropyl-2,3,5,6-tetrafluoro-4-chlorophenyl)sulfonamido)acetamido)benzoic acid] | > 32 µM | 30.7 µM |  |  |  |  |
| O=C(O)c1ccc(N(Cc2ccc(C3CCCCCC3)cc2)C(=O)CN(C2CC2)S(=O)(=O)c2c(F)c(F)c(F)c(F)c2F)cc1 [DR-3-165, 4-(N-(4-Cycloheptylbenzyl)-2-((N-cyclopropyl-2,3,4,5,6-pentafluorophenyl)sulfonamido)acetamido)benzoic acid] |  |  | 2.45 | 2.7 µM | 1.1 µM |  |
| O=C(O)c1ccc(N(Cc2ccccc2)C(=O)CN(C2CC2)S(=O)(=O)c2c(F)c(F)c(F)c(F)c2F)cc1 [PSL-3-115] |  |  | 2.26 | 5.2 µM | 2.3 µM |  |
| CC(C)(C)c1ccc(CN(C(=O)CN(C2CC2)S(=O)(=O)c2ccc(F)cc2)c2ccc(C(=O)O)cc2)cc1 [AES1-094, 4-(N-(4-(tert-butyl)benzyl)-2-((N-cyclopropyl-4-fluorophenyl)sulfonamido)acetamido)benzoic acid] | > 32 µM | 10.6 µM |  |  |  |  |
| O=C(O)c1ccc(N(Cc2ccc(Cl)cc2)C(=O)CN(C2CC2)S(=O)(=O)c2c(F)c(F)c(F)c(F)c2F)cc1 [DR-4-003, 4-(N-(4-Chlorobenzyl)-2-((N-cyclopropyl-2,3,4,5,6-pentafluorophenyl)sulfonamido)acetamido)benzoic acid] |  |  | 2.41 | 4.1 µM | 1.7 µM |  |
| O=C(O)c1ccc(N(Cc2ccc(C3CCCC3)cc2)C(=O)CN(C2CC2)S(=O)(=O)c2c(F)c(F)c(C(F)(F)F)c(F)c2F)cc1 [AM1-066, 4-(N-(4-Cyclopentylbenzyl)-2-((N-cyclopropyl-2,3,5,6-tetrafluoro-4-(trifluoromethyl)phenyl)sulfonamido)acetamido)benzoic acid] | 20.4 µM | 21.6 µM |  |  |  |  |
| CC(C)N(CC(=O)N(Cc1ccc(C2CCCCC2)cc1)c1ccc(C(=O)O)cc1)S(=O)(=O)c1c(F)c(F)c(F)c(F)c1F [PSL-3-40, 4-(N-(4-cyclohexylbenzyl)-2-(2,3,4,5,6-pentafluoro-N-isopropylphenylsulfonamido)acetamido)benzoic acid] |  |  |  |  |  | IC50 (AR230 cells): 8.7 µM; IC50 (AR230^R cells): 14.2 µM |
| O=C(O)c1ccc(N(Cc2ccc(C3CCCC3)cc2)C(=O)CN(C2CC2)S(=O)(=O)c2ccc(F)cn2)cc1 [AM1-117, 4-(N-(4-Cyclopentylbenzyl)-2-((N-cyclopropyl-5-fluoropyridine)-2-sulfonamido)acetamido)benzoic acid] | > 32 µM | > 32 µM |  |  |  |  |
| O=C(O)c1ccc(N(Cc2ccc(C3CCCC3)cc2)C(=O)CN(C2CC2)S(=O)(=O)c2c(F)c(F)c(F)c(F)c2F)cc1 [DR-3-093, 4-(N-(4-Cyclopentylbenzyl)-2-((N-cyclopropyl-2,3,4,5,6-pentafluorophenyl)sulfonamido)acetamido)benzoic acid] |  |  | 2.75 | 3.3 µM | 1.2 µM |  |
| O=C(O)c1ccc(N(Cc2ccc(C3CCCC3)cc2)C(=O)CN(C2CC2)S(=O)(=O)c2cccnc2)cc1 [RG1-066, 4-(N-(4-Cyclopentylbenzyl)-2-(N-cyclopropylpyridine-3-sulfonamido)acetamido)benzoic acid] |  |  |  |  |  | IC50 (AR230 cells): > 32 µM; IC50 (AR230^R cells): > 32 µM |
| O=C(O)c1ccc(N(Cc2ccc(C3CCC3)cc2)C(=O)CN(C2CC2)S(=O)(=O)c2c(F)c(F)c(F)c(F)c2F)cc1 [DR-4-020, 4-(N-(4-Cyclobutylbenzyl)-2-((N-cyclopropyl-2,3,4,5,6-pentafluorophenyl)sulfonamido)acetamido)benzoic acid] |  |  | 2.05 | 8.6 µM | 4.2 µM |  |
| O=C(O)c1ccc(N(Cc2ccc(C3CCCC3)cc2)C(=O)CN(C2CC2)S(=O)(=O)c2c(F)c(F)c(Br)c(F)c2F)cc1 [AM1-077, 4-(N-(4-Cyclopentylbenzyl)-2-((N-cyclopropyl-2,3,5,6-tetrafluoro-4-bromophenyl)sulfonamido)acetamido)benzoic acid] | 25.1 µM | 20.3 µM |  |  |  |  |
| O=C(O)c1ccc(N(Cc2ccc(C3CCOCC3)cc2)C(=O)CN(C2CC2)S(=O)(=O)c2c(F)c(F)c(F)c(F)c2F)cc1 [DR-4-042] |  |  | 1.12 | 4.7 µM | 4.2 µM |  |
| O=C(O)c1ccc(N(Cc2ccc(C3CCCC3)cc2)C(=O)CN(C2CC2)S(=O)(=O)c2ccc(F)nc2)cc1 [AM1-116, 4-(N-(4-Cyclopentylbenzyl)-2-((N-cyclopropyl-6-fluoropyridine)-3-sulfonamido)acetamido)benzoic acid] | > 32 µM | > 32 µM |  |  |  |  |
